Measurements taken from PubChem BioAssay AID1963866 (Molecular Pharmacology Branch, DTP, NCI, 2024).

Tested on: PDC KRAS tumor spheroids with HUVEC/MSC, viability
Test: Anticancer human tumor 349418-098-R-PDC patient-derived lung adenocarcinoma cell line growth inhibition [KRAS2]
Conditions: for viability, T/C: stronger effect = lower value
Procedure, shortened: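 Combination screen of spheroid viability in tumor-cell co-cultures with endothelial (HUVEC) and mesenchymal stem cell stroma. Each agent was tested in half-log dilutions, topping at clinical Cmax or at 10 microM without a known Cmax.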

[1] = curve of first compound, second compound 0.1 µM
[2] = curve of first compound, second compound 0.316 µM
[3] = curve of first compound, second compound 1 µM
[4] = curve of first compound, second compound 3.16 µM
[5] = curve of first compound, second compound 10 µM
[6] = second compound 0.1 µM, first compound 0.00316 µM
[7] = second compound 0.1 µM, first compound 0.01 µM
[8] = second compound 0.1 µM, first compound 0.0316 µM
[9] = second compound 0.316 µM, first compound 0.00316 µM
[10] = second compound 0.316 µM, first compound 0.01 µM
[11] = second compound 0.316 µM, first compound 0.0316 µM
[12] = second compound 1 µM, first compound 0.00316 µM
[13] = second compound 1 µM, first compound 0.01 µM
[14] = second compound 1 µM, first compound 0.0316 µM
[15] = second compound 3.16 µM, first compound 0.00316 µM
[16] = second compound 3.16 µM, first compound 0.01 µM
[17] = second compound 3.16 µM, first compound 0.0316 µM
[18] = second compound 10 µM, first compound 0.00316 µM
[19] = second compound 10 µM, first compound 0.01 µM
[20] = second compound 10 µM, first compound 0.0316 µM
[21] = curve of first compound, second compound 0.0316 µM
[22] = second compound 0.0316 µM, first compound 0.0316 µM
[23] = second compound 0.0316 µM, first compound 0.1 µM
[24] = second compound 0.0316 µM, first compound 0.316 µM
[25] = second compound 0.0316 µM, first compound 1 µM
[26] = second compound 0.0316 µM, first compound 3.16 µM
[27] = second compound 0.1 µM, first compound 0.1 µM
[28] = second compound 0.1 µM, first compound 0.316 µM
[29] = second compound 0.1 µM, first compound 1 µM
[30] = second compound 0.1 µM, first compound 3.16 µM
[31] = second compound 0.316 µM, first compound 0.1 µM
[32] = second compound 0.316 µM, first compound 0.316 µM
[33] = second compound 0.316 µM, first compound 1 µM
[34] = second compound 0.316 µM, first compound 3.16 µM
[35] = second compound 1 µM, first compound 0.1 µM
[36] = second compound 1 µM, first compound 0.316 µM
[37] = second compound 1 µM, first compound 1 µM
[38] = second compound 1 µM, first compound 3.16 µM
[39] = second compound 3.16 µM, first compound 0.1 µM
[40] = second compound 3.16 µM, first compound 0.316 µM
[41] = second compound 3.16 µM, first compound 1 µM
[42] = second compound 3.16 µM, first compound 3.16 µM
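Note: spheroids exposed to compounds for seven days before readout.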

## CC(=O)Nc1cccc(-n2c(=O)n(C3CC3)c(=O)c3c(Nc4ccc(I)cc4F)n(C)c(=O)c(C)c32)c1 + COc1cc2nc(C)nc(NC(C)c3cc(N)cc(C(F)(F)F)c3)c2cc1OC1CCOC1
[1]
  IC50: < 0.0001 µM
[2]
  IC50: < 0.0001 µM
[3]
  IC50: < 0.0001 µM
[4]
  IC50: < 0.0001 µM
[5]
  IC50: < 0.0001 µM
Second compound 0.1 µM, first compound 0.0001 µM
  viability, T/C: 26.5%
Second compound 0.1 µM, first compound 0.000316 µM
  viability, T/C: 12.7%
Second compound 0.1 µM, first compound 0.001 µM
  viability, T/C: 8.13%
[6]
  viability, T/C: 7.1%
[7]
  viability, T/C: 6.58%
[8]
  viability, T/C: 5.51%
Second compound 0.316 µM, first compound 0.0001 µM
  viability, T/C: 19.8%
Second compound 0.316 µM, first compound 0.000316 µM
  viability, T/C: 10.8%
Second compound 0.316 µM, first compound 0.001 µM
  viability, T/C: 8.06%
[9]
  viability, T/C: 7.58%
[10]
  viability, T/C: 6.23%
[11]
  viability, T/C: 4.76%
Second compound 1 µM, first compound 0.0001 µM
  viability, T/C: 18%
Second compound 1 µM, first compound 0.000316 µM
  viability, T/C: 8.51%
Second compound 1 µM, first compound 0.001 µM
  viability, T/C: 7.77%
[12]
  viability, T/C: 6.73%
[13]
  viability, T/C: 5.93%
[14]
  viability, T/C: 4.86%
Second compound 3.16 µM, first compound 0.0001 µM
  viability, T/C: 14.4%
Second compound 3.16 µM, first compound 0.000316 µM
  viability, T/C: 11%
Second compound 3.16 µM, first compound 0.001 µM
  viability, T/C: 8.06%
[15]
  viability, T/C: 5.6%
[16]
  viability, T/C: 5.05%
[17]
  viability, T/C: 4.65%
Second compound 10 µM, first compound 0.0001 µM
  viability, T/C: 5.99%
Second compound 10 µM, first compound 0.000316 µM
  viability, T/C: 4.73%
Second compound 10 µM, first compound 0.001 µM
  viability, T/C: 4.46%
[18]
  viability, T/C: 3.12%
[19]
  viability, T/C: 4.29%
[20]
  viability, T/C: 3.2%

## CN(C)C/C=C/C(=O)Nc1cc2c(Nc3ccc(F)c(Cl)c3)ncnc2cc1O[C@H]1CCOC1
Compound 0.001 µM
  viability, T/C: 94.4% [middle of 5 runs]
Compound 0.0316 µM
  viability, T/C: 99% [middle of 5 runs]
Compound 0.1 µM
  viability, T/C: 97.2% [middle of 5 runs]
Curve of compound
  IC50: > 0.1 µM

## CCNC(=O)CC1N=C(c2ccc(Cl)cc2)c2cc(OC)ccc2-n2c(C)nnc21 (centres undefined) + C=CC(=O)N1CCN(c2nc(OCC3CCCN3C)nc3c2CCN(c2cccc4cccc(C)c24)C3)CC1CC#N
[21]
  IC50: 0.122 µM
[1]
  IC50: 0.0957 µM
[2]
  IC50: 0.186 µM
[3]
  IC50: 0.0477 µM
[4]
  IC50: < 0.0316 µM
[22]
  viability, T/C: 102%
[23]
  viability, T/C: 50.9%
[24]
  viability, T/C: 34.2%
[25]
  viability, T/C: 8.72%
[26]
  viability, T/C: 1.74%
Second compound 0.0316 µM, first compound 10 µM
  viability, T/C: 0.85%
[8]
  viability, T/C: 93.1%
[27]
  viability, T/C: 48.1%
[28]
  viability, T/C: 21.8%
[29]
  viability, T/C: 9.94%
[30]
  viability, T/C: 1.6%
Second compound 0.1 µM, first compound 10 µM
  viability, T/C: 0.66%
[11]
  viability, T/C: 101%
[31]
  viability, T/C: 70.5%
[32]
  viability, T/C: 30.6%
[33]
  viability, T/C: 16.6%
[34]
  viability, T/C: 4.31%
Second compound 0.316 µM, first compound 10 µM
  viability, T/C: 1.58%
[14]
  viability, T/C: 62.9%
[35]
  viability, T/C: 26.6%
[36]
  viability, T/C: 10.7%
[37]
  viability, T/C: 4.52%
[38]
  viability, T/C: 0.59%
Second compound 1 µM, first compound 10 µM
  viability, T/C: 2.47%
[17]
  viability, T/C: 0.12%
[39]
  viability, T/C: 0.1%
[40]
  viability, T/C: 0.09%
[41]
  viability, T/C: 0.08%
[42]
  viability, T/C: 0.08%
Second compound 3.16 µM, first compound 10 µM
  viability, T/C: 0.13%

## CC(=O)OC12COC1CC(O)C1(C)C(=O)C(O)C3=C(C)C(OC(=O)C(O)C(NC(=O)OC(C)(C)C)c4ccccc4)CC(O)(C(OC(=O)c4ccccc4)C21)C3(C)C (centres undefined) + C=CC(=O)N1CCN(c2nc(OCC3CCCN3C)nc3c2CCN(c2cccc4cccc(C)c24)C3)CC1CC#N
[21]
  IC50: < 0.01 µM
[1]
  IC50: < 0.01 µM
[2]
  IC50: < 0.01 µM
[3]
  IC50: < 0.01 µM
[4]
  IC50: < 0.01 µM
Second compound 0.0316 µM, first compound 0.01 µM
  viability, T/C: 12%
[22]
  viability, T/C: 20%
[23]
  viability, T/C: 16.5%
[24]
  viability, T/C: 17.8%
[25]
  viability, T/C: 24.9%
[26]
  viability, T/C: 23.5%
[7]
  viability, T/C: 13.5%
[8]
  viability, T/C: 12%
[27]
  viability, T/C: 15.2%
[28]
  viability, T/C: 17.2%
[29]
  viability, T/C: 21.1%
[30]
  viability, T/C: 18%
[10]
  viability, T/C: 10.8%
[11]
  viability, T/C: 14.2%
[31]
  viability, T/C: 12.8%
[32]
  viability, T/C: 14.6%
[33]
  viability, T/C: 18.3%
[34]
  viability, T/C: 18%
[13]
  viability, T/C: 9.34%
[14]
  viability, T/C: 12.5%
[35]
  viability, T/C: 12.2%
[36]
  viability, T/C: 11.6%
[37]
  viability, T/C: 14.8%
[38]
  viability, T/C: 17.5%
[16]
  viability, T/C: 12.8%
[17]
  viability, T/C: 14.4%
[39]
  viability, T/C: 19.9%
[40]
  viability, T/C: 20%
[41]
  viability, T/C: 19.5%
[42]
  viability, T/C: 24.3%

## CCN1CCN(Cc2ccc(Nc3ncc(F)c(-c4cc(F)c5nc(C)n(C(C)C)c5c4)n3)nc2)CC1 + C=CC(=O)N1CCN(c2nc(=O)n(-c3c(C)ccnc3C(C)C)c3nc(-c4c(O)cccc4F)c(F)cc23)C(C)C1
[1]
  IC50: 0.00677 µM
[2]
  IC50: 0.00765 µM
[3]
  IC50: 0.0074 µM
[4]
  IC50: 0.00446 µM
[5]
  IC50: < 0.00316 µM
[6]
  viability, T/C: 71.8%
[7]
  viability, T/C: 37.4%
[8]
  viability, T/C: 21.8%
[27]
  viability, T/C: 18%
[28]
  viability, T/C: 15.4%
[29]
  viability, T/C: 4.22%
[9]
  viability, T/C: 76.3%
[10]
  viability, T/C: 41.9%
[11]
  viability, T/C: 20.9%
[31]
  viability, T/C: 19.5%
[32]
  viability, T/C: 14.6%
[33]
  viability, T/C: 4.52%
[12]
  viability, T/C: 75.9%
[13]
  viability, T/C: 40.6%
[14]
  viability, T/C: 21.7%
[35]
  viability, T/C: 15%
[36]
  viability, T/C: 15.7%
[37]
  viability, T/C: 2.9%
[15]
  viability, T/C: 55.4%
[16]
  viability, T/C: 39.6%
[17]
  viability, T/C: 18.5%
[39]
  viability, T/C: 18.4%
[40]
  viability, T/C: 16.6%
[41]
  viability, T/C: 2.48%
[18]
  viability, T/C: 25.3%
[19]
  viability, T/C: 14.2%
[20]
  viability, T/C: 12.8%
Second compound 10 µM, first compound 0.1 µM
  viability, T/C: 8.96%
Second compound 10 µM, first compound 0.316 µM
  viability, T/C: 8.17%
Second compound 10 µM, first compound 1 µM
  viability, T/C: 0.93%
